Experimental data reported in patent US20250320215A1, “SALTS OF N-[4-(4-[[2-(DIMETHYLAMINO)ETHYL]AMINO]-3-METHYL-1H-PYRAZOLO[3,4-D]PYRIMIDIN-6-YL)-2-FLUOROPHENYL]-2,5-DIFLUOROBENZENESULFONAMIDE AND CRYSTALLINE FORMS THEREOF” (THRYV THERAPEUTICS INC, priority 2022, published 2025).
Values after ≈ are worked out from the molar mass of the structure shown.

How the values were obtained:
Type in all cases: physicochemical
[1] = pKa values and protonation state of Compound 1
[2] = Solubility estimates by aliquot addition method in various solvents; conditions: thermodynamic from solid
Experimental: Solubility estimates were conducted using an aliquot addition method in a variety of solvents at ambient temperature.
Samples with solvents with poor solubility were heated at 50° C.

[3] = Solubility of the salts in water / MTBE
Experimental: Solubility in water is >25 mg/mL.

[4] = Dynamic vapor sorption/desorption (DVS) with post-DVS XRPD; conditions: for Post-DVS XRPD: XRPD after DVS versus before; for Reversibility (DVS): sorption/desorption
Experimental: Moisture sorption/desorption data were collected on a DVS Intrinsic. 7-20 mg of a sample was placed into a tared sample chamber and automatically weighed. The anhydrates were analyzed with the following setting parameters:
DVS experiments (FIGS. 17, 19, 21, 34, 35, 48 and 50) and XRPD post-DVS experiments (FIGS. 18, 20, 22, 36, 49 and 51) were conducted in order to study the deliquescence behaviour of the crystalline salts upon expose to humidity.

[5] = Water activity study (competition of forms, XRPD); conditions: room temperature
Experimental: Water activity study was performed using Compound 3 Form B (anhydrate) as the input material in EtOH/Water with different water content at RT. About 5 mg of Compound 3, Form B was used to prepare saturated solutions and the solutions were filtered by syringe at RT. 5 mg of Compound 3, Form D were added in the 1 mL of filtrate, and the suspension was slurried at RT for 3 and 7 days. The solids collected after filtration were analyzed by XRPD.
Protocol: excess amount of Compound 4 Form B was used to prepare saturated solutions. 6-8 mg each of Compound 4 Form B and Form D were added in the solutions. The suspension was slurried at room temperature for the corresponding times. Residual solids were collected by filtration with syringe filter, and characterized by XRPD.

[6] = Solid stability testing (HPLC purity and XRPD); conditions: for Solid stability: 60° C. (capped/close) and 40° C./75% RH (open) for 7 days; for Purity, Initial T0 / Purity - 7 days, 60° C. / Purity - 7 days, 40° C./75% RH: HPLC; for Purity, Initial T0 / XRPD, Initial T0: before storage; for Purity - 7 days, 60° C. / XRPD - 7 days, 60° C.: capped/closed vial; for Purity - 7 days, 40° C./75% RH / XRPD - 7 days, 40° C./75% RH: open
Experimental: HPLC analysis were performed with an Agilent HPLC 1260 series instrument. HPLC method for stability testing is as follows:
Solid stability testing of Compound 3, Form D was evaluated at the conditions of 60° C. (capped) and 40° C./75% RH (open) for 7 days. Polymorphic form and purity were analyzed by XRPD and HPLC, respectively. […] (capped) and 40° C./75% RH (open) for 7 days.
Solid stability testing of Compound 4 Form B and Form D were evaluated at the conditions of 60° C. (vial close) and 40° C./75% RH (vial open) for 7 days. Polymorphic form and purity were checked by XRPD and HPLC, respectively.

[7] = Comparative study (interconversion and water activity) between crystalline forms; conditions: Compound 3: Forms B, C, D, E, non-aqueous and aqueous systems; Compound 4: Forms B to G
Experimental: (capped) and 40° C. with 75% relative humidity (open).
Form D is stable at high water activity (0.16≤aW≤0.90). Solid stability study indicated Form D was physically and chemically stable at 60° C. (close) and 40° C. at 75% RH for 7 days.

[8] = Drying, physical stability of the form
Experimental: After being subjected to drying in a vacuum oven for 1 day at 62-72° C., Form A was characterized by XRPD (FIG. 22: pre-DVS) and proton NMR (FIG. 15).
Form E was obtained by slow cooling crystallization in NMP (FIG. 43). The unstable form has not been characterized further. A clear solution of Compound 4, Form B was dissolved (30 mg) in NMP at 50° C. and cooled from 50° C. to 2° C.

[9] = Slurry study evaluated by XRPD; conditions: slurry started from Form B; Form C occurred at 30 min; at 60 min
[10] = Thermal treatment (heat-cool cycle by DSC, XRPD of resulting solids)
Experimental: Compound 3, Form E was treated with heat-cool cycle by DSC. The resulted solids were characterized by XRPD. Compound 3, Form E, was converted to Compound 3, Form D after desolvation.
Compound 4 Form B was treated with heat-cool cycle by DSC. The resulted solids were checked by XRPD. […] The water was excluded at elevated temperature, then entered in the crystal lattice again at room temperature.
Compound 4 Form C and trace Form B was treated with heat-cool cycle by DSC. The resulted solids were checked by XRPD. The sample was converted to low crystalline (LC) Form B after heating to 175° C.
Compound 4 Form D was treated with heat-cool cycle by DSC. The resulted solids were checked by XRPD. The sample kept unchanged after heating to 140° C., but was converted to a new low crystalline form after heating to 210° C. which was assigned to Form F.

Cc1n[nH]c2nc(-c3ccc(NS(=O)(=O)c4cc(F)ccc4F)c(F)c3)nc(NCCN(C)C)c12 [Compound 1, N-[4-(4-[[2-(dimethylamino)ethyl]amino]-3-methyl-1H-pyrazolo[3,4-d]pyrimidin-6-yl)-2-fluorophenyl]-2,5-difluorobenzenesulfonamide]
pKa ([1]; first of four pKa values): 2.7 | pKa ([1]; fourth of four pKa values): 11.8 | Charge (dominant protonation state) ([1]; pH 5.81-8.85): Neutral (Zwitterion) | pKa ([1]; second of four pKa values): 5.81 | pKa ([1]; third of four pKa values): 8.85 | solubility ([2]; ACN, 50 °C, organic solvent or mixture, read-out: Solubility at 50° C.): < 1000 µg/mL | solubility ([2]; ACN, organic solvent or mixture, read-out: Solubility at RT): < 1000 µg/mL | solubility ([2]; DCM, 50 °C, organic solvent or mixture, read-out: Solubility at 50° C.): < 1000 µg/mL | solubility ([2]; DCM, organic solvent or mixture, read-out: Solubility at RT): < 1000 µg/mL | solubility ([2]; DMF, organic solvent or mixture, read-out: Solubility at RT): 33000 µg/mL (≈ 65.3 mM) | solubility ([2]; DMSO, organic solvent or mixture, read-out: Solubility at RT): 41000 µg/mL (≈ 81.1 mM) | solubility ([2]; EtOAc, 50 °C, organic solvent or mixture, read-out: Solubility at 50° C.): < 3000 µg/mL | solubility ([2]; EtOAc, organic solvent or mixture, read-out: Solubility at RT): < 3000 µg/mL | solubility ([2]; EtOH, 50 °C, organic solvent or mixture, read-out: Solubility at 50° C.): < 2000 µg/mL | solubility ([2]; EtOH, organic solvent or mixture, read-out: Solubility at RT): < 2000 µg/mL | solubility ([2]; IPA, 50 °C, organic solvent or mixture, read-out: Solubility at 50° C.): < 2000 µg/mL | solubility ([2]; IPA, organic solvent or mixture, read-out: Solubility at RT): < 2000 µg/mL | solubility ([2]; MTBE, 50 °C, organic solvent or mixture, read-out: Solubility at 50° C.): < 2000 µg/mL | solubility ([2]; MTBE, organic solvent or mixture, read-out: Solubility at RT): < 2000 µg/mL | solubility ([2]; MeOH, 50 °C, organic solvent or mixture, read-out: Solubility at 50° C.): > 1000 µg/mL | solubility ([2]; MeOH, organic solvent or mixture, read-out: Solubility at RT): < 1000 µg/mL | solubility ([2]; THF, 50 °C, organic solvent or mixture, read-out: Solubility at 50° C.): > 1000 µg/mL | solubility ([2]; THF, organic solvent or mixture, read-out: Solubility at RT): < 1000 µg/mL | solubility ([2]; acetone, 50 °C, organic solvent or mixture, read-out: Solubility at 50° C.): < 1000 µg/mL | solubility ([2]; acetone, organic solvent or mixture, read-out: Solubility at RT): < 1000 µg/mL | solubility ([2]; water, 50 °C, water, read-out: Solubility at 50° C.): < 2000 µg/mL | solubility ([2]; water, read-out: Solubility at RT): < 2000 µg/mL

Cc1n[nH]c2nc(-c3ccc(NS(=O)(=O)c4cc(F)ccc4F)c(F)c3)nc(NCCN(C)C)c12 [Compound 2]
Solubility in water ([3]; water): < 1000 µg/mL | Post-DVS XRPD [4]: No change | wt % gain (DVS) ([4]; from 5 to 95% RH): 0.4 wt %

Cc1n[nH]c2nc(-c3ccc(NS(=O)(=O)c4cc(F)ccc4F)c(F)c3)nc(NCCN(C)C)c12.Cl [Compound 3 Form A]
solubility at 1 day ([3]; water, thermodynamic from solid): < 1000 µg/mL | Post-DVS XRPD [4]: No change | wt % gain (DVS) ([4]; from 5 to 96% RH): 2.1 wt %

Cc1n[nH]c2nc(-c3ccc(NS(=O)(=O)c4cc(F)ccc4F)c(F)c3)nc(NCCN(C)C)c12.Cl [Compound 3 Form D]
water activity (aw) at which the form is stable / the most stable form [5]: lower than 0.6 | Solid stability [6]: chemically and physically stable | Purity, Initial T0 [6]: 99.19% | Purity - 7 days, 60° C. [6]: 99.24% | Purity - 7 days, 40° C./75% RH [6]: 99.30% | XRPD, Initial T0 [6]: Form D | XRPD - 7 days, 60° C. [6]: Form D | XRPD - 7 days, 40° C./75% RH [6]: Form D | relative stability among the crystalline forms [7]: most stable form | hygroscopicity [4]: slightly hygroscopic | wt % gain (DVS) ([4]; first value of '1.5 wt % and 1.7 wt % gain from 80 to 90% RH'): 1.5 wt % | Reversibility (DVS) [4]: Minor hysteresis

Cc1n[nH]c2nc(-c3ccc(NS(=O)(=O)c4cc(F)ccc4F)c(F)c3)nc(NCCN(C)C)c12 [Compound 4 Form A]
solubility ([3]; MTBE, organic solvent or mixture, thermodynamic from solid, MTBE at RT): < 2000 µg/mL | Solubility in water ([3]; water): > 25000 µg/mL | physical stability on drying ([8]; vacuum oven for a day at 62-72° C.): retain its crystalline form | Comments: hygroscopicity (DVS) [4]: Hygroscopic | hygroscopicity [4]: hygroscopic | Post-DVS XRPD [4]: No change | wt % gain (DVS) ([4]; from 5 to 75% RH): 1.3 wt % | wt % gain (DVS) ([4]; from 75 to 96% RH): 3.2 wt % | Reversibility (DVS) [4]: Reversible

Cc1n[nH]c2nc(-c3ccc(NS(=O)(=O)c4cc(F)ccc4F)c(F)c3)nc(NCCN(C)C)c12 [Compound 4 Form C]
form conversion during slurry in THF [9]: converted to di-mesylate Form D completely

Cc1n[nH]c2nc(-c3ccc(NS(=O)(=O)c4cc(F)ccc4F)c(F)c3)nc(NCCN(C)C)c12 [Compound 4 Form D]
Solid stability [6]: chemically and physically stable | Purity, Initial T0 [6]: 99.29% | Purity - 7 days, 60° C. [6]: 99.17% | Purity - 7 days, 40° C./75% RH [6]: 99.29% | XRPD, Initial T0 [6]: Form D | XRPD - 7 days, 60° C. [6]: Form D | XRPD - 7 days, 40° C./75% RH [6]: Form D | XRPD Resulting Form ([10]; Heated to 140° C. at 10° C./min, and cooled to 25° C. at 5° C./min): Form D | XRPD Resulting Form ([10]; Heated to 210° C. at 10° C./min, and cooled to 25° C. at 5° C./min): Form F | relative stability among the crystalline forms [7]: most stable form | hygroscopicity [4]: slightly hygroscopic | Post-DVS XRPD [4]: No change | wt % gain (DVS) ([4]; at 80% RH (25° C.)): 0.99 wt % | water uptake (DVS) ([4]; at 80% RH, 25° C.): 0.99%

Cc1n[nH]c2nc(-c3ccc(NS(=O)(=O)c4cc(F)ccc4F)c(F)c3)nc(NCCN(C)C)c12 [Compound 4 Form E]
form conversion after drying ([8]; obtained by cooling in NMP from 50° C. to 2° C.): converted to Form D
